From patent publication US9826761B2, “Compositions and methods for mitigating dietary sulfur in animals” (SarTec Corporation, priority 2008, dated 2017)

Experiments:
[1] = Precipitating activity: rumen fluid containing manganese compound titrated with 1.0M Na2S, silver/sulfide electrode; set-up: species or system Holstein cows; details: for mVolts: 200 mM MnCl2 in rumen fluid
Experimental: Next, 0.28 g of MnO(II) was placed in a 100 ml beaker and 20 ml of rumen fluid was added. Then 0.17 g of MnO2(IV) was placed in 100 ml beaker and 20 ml of rumen fluid was added. Each of these compositions, in addition to a rumen fluid control, was then titrated with a 1.0M solution of Na2S. The progress of the reaction was followed using the same silver/sulfide electrode set-up described above (Orion, Ion Plus Silver/Sulfide 9616BNWP).

[2] = Titration of approx. 200 mM sulfide in 24 hour old rumen fluid with 1 M MnCl2, BaCl2 or CaCl2, silver/sulfide electrode; set-up: species or system Holstein cows
Experimental: 24 hour old undiluted rumen fluid from rumen fistulated Holstein cows was obtained. 4 ml of Na2S in water (approximately 1 M) was added to 16 ml of the rumen fluid. The final concentration of sulfide ion in the rumen fluid was approximately 200 mM. […] The progress of the reaction was followed using the same silver/sulfide electrode set-up described above (Orion, Ion Plus Silver/Sulfide 9616BNWP).

[3] = Effect of MnCl2 supplementation on cattle (feedlot trial); type: in vivo, Angus based feeder calves; details: feeder calves, approx. 0.55 g/head/day MnCl2 and 10.0 g/head/day FeCl2 in supplement with Yucca extract
Source text: In this example, forty-six Angus based feeder calves were blocked by sex (heifers and steers) and assigned within block to one of two treatments. One group (one pen of steers and one pen of heifers) was fed a commercially available feed additive including Yucca extract ([…] Corporation, Anoka, Minn.) mixed into the feedlot supplement. […] The supplement also contained minerals, vitamins, […]), and carrier feed products including corn, barley sprouts, and distillers grains. […] The results (DMI=dry matter intake, ADG=average daily gain) are shown below in Table 5.

[4] = Titration of approx. 200 mM sulfide in fresh rumen fluid with 1 M metal chloride, silver/sulfide electrode; set-up: species or system Holstein cows; details: for mVolts (Negative Value): ~200 mM sulfide, fresh rumen fluid
Experimental: Fresh undiluted rumen fluid was obtained from rumen fistulated Holstein cows. 1.5 ml of a saturated solution of Na2S in water (approximately 2.7 M) was added to 18.5 ml of the rumen fluid. Sodium sulfide solutions were quantified by titration using a silver/sulfide electrode (Orion, Ion Plus Silver/Sulfide 9616BNWP) and a commercial lead standard (0.1 M Pb^2+, Orion 948206). The final concentration for sulfide ion in the rumen fluid was approximately 200 mM. This solution was then titrated with a 1 M solution of MnCl2 in water. The progress of the reaction was followed using the silver/sulfide electrode.
Fresh undiluted rumen fluid was obtained from rumen fistulated Holstein cows. 1.5 ml of saturated solution of Na2S in water (approximately 2.7 M) was added to 18.5 ml of the rumen fluid. The final concentration of sulfide ion in the rumen fluid was approximately 200 mM. This solution was then titrated with a 1 M solution of FeCl2 in water. The progress of the reaction was followed using the same silver/sulfide electrode set-up described above (Orion, Ion Plus Silver/Sulfide 9616BNWP).
Data taken from Examples 1 and 2 above were plotted together in order to gauge the relative efficacy of MnCl2 versus FeCl2 in removing sulfide ion from rumen fluid.

manganese (II) chloride [MnCl2]
mVolts ([1]; Vol 1M Na2S 0.0): 533.2 mVolts | mVolts ([1]; Vol 1M Na2S 0.3): 617.3 mVolts | mVolts ([1]; Vol 1M Na2S 0.5): 631.2 mVolts | mVolts ([1]; Vol 1M Na2S 0.8): 640.0 mVolts | mVolts ([1]; Vol 1M Na2S 1.1): 641.8 mVolts | mVolts ([1]; Vol 1M Na2S 1.4): 647.5 mVolts | mVolts ([1]; Vol 1M Na2S 1.7): 649.0 mVolts | mVolts ([1]; Vol 1M Na2S 2.1): 652.1 mVolts | mVolts ([1]; Vol 1M Na2S 2.3): 653.0 mVolts | mVolts ([1]; Vol 1M Na2S 2.6): 652.6 mVolts | mVolts ([1]; Vol 1M Na2S 2.9): 658.0 mVolts | mVolts ([1]; Vol 1M Na2S 3.2): 667.2 mVolts | mVolts ([1]; Vol 1M Na2S 3.4): 678.8 mVolts | mVolts ([1]; Vol 1M Na2S 3.5): 691.3 mVolts | mVolts ([1]; Vol 1M Na2S 3.6): 710.6 mVolts | mVolts ([1]; Vol 1M Na2S 3.8): 742.0 mVolts | mVolts ([1]; Vol 1M Na2S 3.9): 770.9 mVolts | mVolts ([1]; Vol 1M Na2S 4.0): 783.4 mVolts | mVolts ([1]; Vol 1M Na2S 4.1): 804.1 mVolts | mVolts ([1]; Vol 1M Na2S 4.2): 820.2 mVolts | mVolts ([1]; Vol 1M Na2S 4.3): 837.8 mVolts | mVolts ([1]; Vol 1M Na2S 4.4): 851.7 mVolts | mVolts ([1]; Vol 1M Na2S 4.5): 863.4 mVolts | mVolts ([1]; Vol 1M Na2S 4.7): 877.0 mVolts | mVolts ([1]; Vol 1M Na2S 4.8): 883.6 mVolts | mVolts ([1]; Vol 1M Na2S 4.9): 888.2 mVolts | mVolts ([1]; Vol 1M Na2S 5.0): 893.2 mVolts | precipitating sulfide ion versus MnO(II) and MnO2(IV) ([1]; rumen fluid titrated with 1.0M Na2S): much more effective in precipitating sulfide ion | mVolts ([2]; Volume 0.0 of 1.0M MnCl2, ~200 mM sulfide): 934.0 mVolts | mVolts ([2]; Volume 0.2 of 1.0M MnCl2, ~200 mM sulfide): 931.7 mVolts | mVolts ([2]; Volume 0.4 of 1.0M MnCl2, ~200 mM sulfide): 931.6 mVolts | mVolts ([2]; Volume 0.6 of 1.0M MnCl2, ~200 mM sulfide): 930.7 mVolts | mVolts ([2]; Volume 0.8 of 1.0M MnCl2, ~200 mM sulfide): 929.4 mVolts | mVolts ([2]; Volume 1.0 of 1.0M MnCl2, ~200 mM sulfide): 926.6 mVolts | mVolts ([2]; Volume 1.2 of 1.0M MnCl2, ~200 mM sulfide): 921.4 mVolts | mVolts ([2]; Volume 1.4 of 1.0M MnCl2, ~200 mM sulfide): 906.6 mVolts | mVolts ([2]; Volume 1.7 of 1.0M MnCl2, ~200 mM sulfide): 903.0 mVolts | mVolts ([2]; Volume 1.8 of 1.0M MnCl2, ~200 mM sulfide): 863.5 mVolts | mVolts ([2]; Volume 1.9 of 1.0M MnCl2, ~200 mM sulfide): 855.2 mVolts | mVolts ([2]; Volume 2.0 of 1.0M MnCl2, ~200 mM sulfide): 848.1 mVolts | mVolts ([2]; Volume 2.1 of 1.0M MnCl2, ~200 mM sulfide): 841.7 mVolts | mVolts ([2]; Volume 2.2 of 1.0M MnCl2, ~200 mM sulfide): 834.5 mVolts | mVolts ([2]; Volume 2.3 of 1.0M MnCl2, ~200 mM sulfide): 829.2 mVolts | mVolts ([2]; Volume 2.4 of 1.0M MnCl2, ~200 mM sulfide): 823.9 mVolts | mVolts ([2]; Volume 2.5 of 1.0M MnCl2, ~200 mM sulfide): 817.9 mVolts | mVolts ([2]; Volume 2.7 of 1.0M MnCl2, ~200 mM sulfide): 811.4 mVolts | mVolts ([2]; Volume 2.8 of 1.0M MnCl2, ~200 mM sulfide): 804.0 mVolts | mVolts ([2]; Volume 2.9 of 1.0M MnCl2, ~200 mM sulfide): 794.9 mVolts | mVolts ([2]; Volume 3.0 of 1.0M MnCl2, ~200 mM sulfide): 783.1 mVolts | mVolts ([2]; Volume 3.1 of 1.0M MnCl2, ~200 mM sulfide): 767.9 mVolts | mVolts ([2]; Volume 3.3 of 1.0M MnCl2, ~200 mM sulfide): 746.6 mVolts | mVolts ([2]; Volume 3.4 of 1.0M MnCl2, ~200 mM sulfide): 733.1 mVolts | mVolts ([2]; Volume 3.5 of 1.0M MnCl2, ~200 mM sulfide): 718.3 mVolts | mVolts ([2]; Volume 3.6 of 1.0M MnCl2, ~200 mM sulfide): 704.2 mVolts | mVolts ([2]; Volume 3.7 of 1.0M MnCl2, ~200 mM sulfide): 694.2 mVolts | mVolts ([2]; Volume 3.8 of 1.0M MnCl2, ~200 mM sulfide): 687.0 mVolts | mVolts ([2]; Volume 3.9 of 1.0M MnCl2, ~200 mM sulfide): 679.7 mVolts | mVolts ([2]; Volume 4.0 of 1.0M MnCl2, ~200 mM sulfide): 674.1 mVolts | mVolts ([2]; Volume 4.2 of 1.0M MnCl2, ~200 mM sulfide): 670.1 mVolts | mVolts ([2]; Volume 4.4 of 1.0M MnCl2, ~200 mM sulfide): 665.4 mVolts | mVolts ([2]; Volume 4.6 of 1.0M MnCl2, ~200 mM sulfide): 661.8 mVolts | mVolts ([2]; Volume 5.0 of 1.0M MnCl2, ~200 mM sulfide): 657.1 mVolts | total sulfide ion concentrations in the rumen fluid versus BaCl2 and CaCl2 ([2]; ~200 mM sulfide): substantially lower total sulfide ion concentrations | ADG (average daily gain) [3]: 3.58 lb/head/day | DMI (dry matter intake) [3]: 23.18 lb/head/day | End wt. [3]: 1147.5 lb | Feed Efficiency (DM/gain) [3]: 6.48 | concentration of sulfide ion within the rumen fluid ([4]; addition of 1 M titrant to ~200 mM sulfide in fresh rumen fluid): effective to reduce the concentration of sulfide ion | mVolts (Negative Value) ([4]; titrant volume 0.0 of 1M MnCl2): 952.6 mVolts | mVolts (Negative Value) ([4]; titrant volume 0.3 of 1M MnCl2): 950.5 mVolts | mVolts (Negative Value) ([4]; titrant volume 0.5 of 1M MnCl2): 947.7 mVolts | mVolts (Negative Value) ([4]; titrant volume 0.7 of 1M MnCl2): 947.8 mVolts | mVolts (Negative Value) ([4]; titrant volume 0.9 of 1M MnCl2): 940.4 mVolts | mVolts (Negative Value) ([4]; titrant volume 1.1 of 1M MnCl2): 929.7 mVolts | mVolts (Negative Value) ([4]; titrant volume 1.4 of 1M MnCl2): 918.4 mVolts | mVolts (Negative Value) ([4]; titrant volume 1.6 of 1M MnCl2): 899.9 mVolts | mVolts (Negative Value) ([4]; titrant volume 1.8 of 1M MnCl2): 882.2 mVolts | mVolts (Negative Value) ([4]; titrant volume 2.0 of 1M MnCl2): 861.5 mVolts | mVolts (Negative Value) ([4]; titrant volume 2.3 of 1M MnCl2): 850.2 mVolts | mVolts (Negative Value) ([4]; titrant volume 2.5 of 1M MnCl2): 830.5 mVolts | mVolts (Negative Value) ([4]; titrant volume 2.7 of 1M MnCl2): 808.9 mVolts | mVolts (Negative Value) ([4]; titrant volume 2.9 of 1M MnCl2): 777.1 mVolts | mVolts (Negative Value) ([4]; titrant volume 3.2 of 1M MnCl2): 735.7 mVolts | mVolts (Negative Value) ([4]; titrant volume 3.4 of 1M MnCl2): 702.0 mVolts | mVolts (Negative Value) ([4]; titrant volume 3.6 of 1M MnCl2): 686.7 mVolts | mVolts (Negative Value) ([4]; titrant volume 3.9 of 1M MnCl2): 678.2 mVolts | mVolts (Negative Value) ([4]; titrant volume 4.1 of 1M MnCl2): 672.4 mVolts | mVolts (Negative Value) ([4]; titrant volume 4.3 of 1M MnCl2): 667.8 mVolts | mVolts (Negative Value) ([4]; titrant volume 4.5 of 1M MnCl2): 664.4 mVolts | mVolts (Negative Value) ([4]; titrant volume 4.7 of 1M MnCl2): 661.8 mVolts | mVolts (Negative Value) ([4]; titrant volume 4.9 of 1M MnCl2): 658.9 mVolts | mVolts (Negative Value) ([4]; titrant volume 5.2 of 1M MnCl2): 656.6 mVolts | mVolts (Negative Value) ([4]; titrant volume 5.4 of 1M MnCl2): 654.6 mVolts | mVolts (Negative Value) ([4]; titrant volume 6.0 of 1M MnCl2): 649.8 mVolts
